Measured values from the supplement of paper PMC10307832.

Key:
Test in all cases: relative viability (nuclei count vs DMSO), 5 days (fraction); higher = more cells survive
[1] = compound: COc1cc(Nc2c(C#N)cnc3cc(OCCCN4CCN(C)CC4)c(OC)cc23)c(Cl)cc1Cl [Bosutinib] + C[C@@H](Oc1cc(-c2cnn(C3CCNCC3)c2)cnc1N)c1c(Cl)ccc(F)c1Cl [Crizotinib] (partner 1 µM)
How it was run: (§1)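 Medians of duplicate plates are given as relative viability. That measure is the nuclei count in treated wells divided by the count in vehicle wells. Counts were taken on 4× images of lung cancer cell lines in 1536-well plates, 5 days after pin-tool dosing the day after seeding with one drug alone or a fixed anchor-drug dose plus five library-drug doses (not always all listed) in √10 steps.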

[2] = compound: COc1cc(Nc2c(C#N)cnc3cc(OCCCN4CCN(C)CC4)c(OC)cc23)c(Cl)cc1Cl [Bosutinib] + C[C@]1(O)C[C@@H](c2nc(-c3ccc4ccc(-c5ccccc5)nc4c3)c3c(N)nccn32)C1 [Linsitinib] (partner 1 µM)
How it was run: as §1

[3] = compound: COc1cc(Nc2c(C#N)cnc3cc(OCCCN4CCN(C)CC4)c(OC)cc23)c(Cl)cc1Cl [Bosutinib] + CCNC(=O)c1noc(-c2cc(C(C)C)c(O)cc2O)c1-c1ccc(CN2CCOCC2)cc1 [Luminespib] (partner 0.01 µM)
How it was run: as §1

[4] = compound: COc1cc(Nc2c(C#N)cnc3cc(OCCCN4CCN(C)CC4)c(OC)cc23)c(Cl)cc1Cl [Bosutinib] + O=C(CCCCCCC(=O)Nc1ccccc1)NO [Vorinostat] (partner 1 µM)
How it was run: as §1

[5] = compound: COc1cc(Nc2c(C#N)cnc3cc(OCCCN4CCN(C)CC4)c(OC)cc23)c(Cl)cc1Cl [Bosutinib]
How it was run: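 Lung cancer cell lines in 1536-well plates were exposed by pinning to five library-drug doses (not always all listed) √10 apart, following an overnight hold at 37 °C. MetaXpress counted Hoechst-stained nuclei from 4× images taken after 5 days without medium change. Viability is the median ratio of treated-well to vehicle-well nuclei across plates. Plates required control CV below 25% and at least one doubling.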

201T
relative viability ([1]; first compound 0.01 µM): 0.982 | relative viability ([1]; first compound 0.03162 µM): 1.06 | relative viability ([1]; first compound 0.1 µM): 1.1 | relative viability ([1]; first compound 1 µM): 0.945 | relative viability ([2]; first compound 0.01 µM): 1.08 | relative viability ([2]; first compound 0.03162 µM): 0.987 | relative viability ([2]; first compound 0.1 µM): 1.02 | relative viability ([2]; first compound 1 µM): 0.966 | relative viability ([3]; first compound 0.01 µM): 1.01 | relative viability ([3]; first compound 0.03162 µM): 1.06 | relative viability ([3]; first compound 0.1 µM): 1.02 | relative viability ([3]; first compound 1 µM): 0.848 | relative viability ([4]; first compound 0.01 µM): 0.941 | relative viability ([4]; first compound 0.03162 µM): 1.04 | relative viability ([4]; first compound 0.1 µM): 1 | relative viability ([4]; first compound 1 µM): 0.894 | relative viability ([5]; 0.01 µM): 1 | relative viability ([5]; 0.03162 µM): 0.991 | relative viability ([5]; 0.1 µM): 1.02 | relative viability ([5]; 1 µM): 0.906

A549
relative viability ([1]; first compound 0.01 µM): 0.761 | relative viability ([1]; first compound 0.03162 µM): 0.66 | relative viability ([1]; first compound 0.1 µM): 0.724 | relative viability ([1]; first compound 1 µM): 1.01 | relative viability ([2]; first compound 0.01 µM): 0.676 | relative viability ([2]; first compound 0.03162 µM): 0.624 | relative viability ([2]; first compound 0.1 µM): 0.55 | relative viability ([2]; first compound 1 µM): 0.499 | relative viability ([5]; 0.01 µM): 1 | relative viability ([5]; 0.03162 µM): 1.04 | relative viability ([5]; 0.1 µM): 1.01 | relative viability ([5]; 1 µM): 0.939

A-427
relative viability ([1]; first compound 0.01 µM): 0.867 | relative viability ([1]; first compound 0.03162 µM): 0.954 | relative viability ([1]; first compound 0.1 µM): 0.877 | relative viability ([1]; first compound 1 µM): 0.61 | relative viability ([2]; first compound 0.01 µM): 1.1 | relative viability ([2]; first compound 0.03162 µM): 1.13 | relative viability ([2]; first compound 0.1 µM): 1.21 | relative viability ([2]; first compound 1 µM): 1.02 | relative viability ([3]; first compound 0.01 µM): 0.959 | relative viability ([3]; first compound 0.03162 µM): 0.953 | relative viability ([3]; first compound 0.1 µM): 0.936 | relative viability ([3]; first compound 1 µM): 0.745 | relative viability ([4]; first compound 0.01 µM): 0.87 | relative viability ([4]; first compound 0.03162 µM): 0.888 | relative viability ([4]; first compound 0.1 µM): 0.833 | relative viability ([4]; first compound 1 µM): 0.846 | relative viability ([5]; 0.01 µM): 0.979 | relative viability ([5]; 0.03162 µM): 1.04 | relative viability ([5]; 0.1 µM): 1.03 | relative viability ([5]; 1 µM): 0.926

ABC-1
relative viability ([1]; first compound 0.01 µM): 1.01 | relative viability ([1]; first compound 0.03162 µM): 1.04 | relative viability ([1]; first compound 0.1 µM): 1.21 | relative viability ([1]; first compound 1 µM): 0.708 | relative viability ([2]; first compound 0.01 µM): 0.858 | relative viability ([2]; first compound 0.03162 µM): 0.931 | relative viability ([2]; first compound 0.1 µM): 0.647 | relative viability ([2]; first compound 1 µM): 0.359 | relative viability ([3]; first compound 0.01 µM): 0.665 | relative viability ([3]; first compound 0.03162 µM): 0.536 | relative viability ([3]; first compound 0.1 µM): 0.713 | relative viability ([3]; first compound 1 µM): 0.481 | relative viability ([4]; first compound 0.01 µM): 1.18 | relative viability ([4]; first compound 0.03162 µM): 1.08 | relative viability ([4]; first compound 0.1 µM): 1.32 | relative viability ([4]; first compound 1 µM): 1.14 | relative viability ([5]; 0.01 µM): 0.976 | relative viability ([5]; 0.03162 µM): 0.99 | relative viability ([5]; 0.1 µM): 0.854 | relative viability ([5]; 1 µM): 0.88

BEN
relative viability ([1]; first compound 0.01 µM): 0.836 | relative viability ([1]; first compound 0.03162 µM): 0.857 | relative viability ([1]; first compound 0.1 µM): 0.795 | relative viability ([1]; first compound 1 µM): 0.519 | relative viability ([2]; first compound 0.01 µM): 0.981 | relative viability ([2]; first compound 0.03162 µM): 0.798 | relative viability ([2]; first compound 0.1 µM): 1.01 | relative viability ([2]; first compound 1 µM): 0.604 | relative viability ([3]; first compound 0.01 µM): 0.442 | relative viability ([3]; first compound 0.03162 µM): 0.282 | relative viability ([3]; first compound 0.1 µM): 0.478 | relative viability ([3]; first compound 1 µM): 0.434 | relative viability ([4]; first compound 0.01 µM): 0.557 | relative viability ([4]; first compound 0.03162 µM): 0.56 | relative viability ([4]; first compound 0.1 µM): 0.654 | relative viability ([4]; first compound 1 µM): 0.514 | relative viability ([5]; 0.01 µM): 0.952 | relative viability ([5]; 0.03162 µM): 0.984 | relative viability ([5]; 0.1 µM): 1.08 | relative viability ([5]; 1 µM): 0.765

CAL-12T
relative viability ([1]; first compound 0.01 µM): 0.543 | relative viability ([1]; first compound 0.03162 µM): 0.7 | relative viability ([1]; first compound 0.1 µM): 0.638 | relative viability ([1]; first compound 1 µM): 0.362 | relative viability ([2]; first compound 0.01 µM): 0.739 | relative viability ([2]; first compound 0.03162 µM): 0.932 | relative viability ([2]; first compound 0.1 µM): 0.891 | relative viability ([2]; first compound 1 µM): 0.71 | relative viability ([3]; first compound 0.01 µM): 0.516 | relative viability ([3]; first compound 0.03162 µM): 0.587 | relative viability ([3]; first compound 0.1 µM): 0.335 | relative viability ([3]; first compound 1 µM): 0.204 | relative viability ([4]; first compound 0.01 µM): 0.756 | relative viability ([4]; first compound 0.03162 µM): 0.773 | relative viability ([4]; first compound 0.1 µM): 0.664 | relative viability ([4]; first compound 1 µM): 0.528 | relative viability ([5]; 0.01 µM): 1.06 | relative viability ([5]; 0.03162 µM): 0.96 | relative viability ([5]; 0.1 µM): 0.95 | relative viability ([5]; 1 µM): 0.914

COR-L23
relative viability ([1]; first compound 0.01 µM): 0.663 | relative viability ([1]; first compound 0.03162 µM): 0.589 | relative viability ([1]; first compound 0.1 µM): 0.571 | relative viability ([1]; first compound 1 µM): 0.749 | relative viability ([2]; first compound 0.01 µM): 1 | relative viability ([2]; first compound 0.03162 µM): 0.96 | relative viability ([2]; first compound 0.1 µM): 0.895 | relative viability ([2]; first compound 1 µM): 0.887 | relative viability ([3]; first compound 0.01 µM): 0.613 | relative viability ([3]; first compound 0.03162 µM): 0.685 | relative viability ([3]; first compound 0.1 µM): 0.76 | relative viability ([3]; first compound 1 µM): 0.56 | relative viability ([4]; first compound 0.01 µM): 0.535 | relative viability ([4]; first compound 0.03162 µM): 0.553 | relative viability ([4]; first compound 0.1 µM): 0.431 | relative viability ([4]; first compound 1 µM): 0.561 | relative viability ([5]; 0.01 µM): 1.05 | relative viability ([5]; 0.03162 µM): 0.972 | relative viability ([5]; 0.1 µM): 1.07 | relative viability ([5]; 1 µM): 1.03

COR-L 105
relative viability ([1]; first compound 0.01 µM): 0.938 | relative viability ([1]; first compound 0.03162 µM): 0.798 | relative viability ([1]; first compound 0.1 µM): 0.617 | relative viability ([1]; first compound 1 µM): 0.507 | relative viability ([2]; first compound 0.01 µM): 0.948 | relative viability ([2]; first compound 0.03162 µM): 1.21 | relative viability ([2]; first compound 0.1 µM): 0.857 | relative viability ([2]; first compound 1 µM): 0.59 | relative viability ([3]; first compound 0.01 µM): 0.882 | relative viability ([3]; first compound 0.03162 µM): 0.635 | relative viability ([3]; first compound 0.1 µM): 0.669 | relative viability ([3]; first compound 1 µM): 0.471 | relative viability ([4]; first compound 0.01 µM): 0.861 | relative viability ([4]; first compound 0.03162 µM): 0.844 | relative viability ([4]; first compound 0.1 µM): 0.828 | relative viability ([4]; first compound 1 µM): 0.624 | relative viability ([5]; 0.01 µM): 0.974 | relative viability ([5]; 0.03162 µM): 0.861 | relative viability ([5]; 0.1 µM): 0.914 | relative viability ([5]; 1 µM): 0.735
